Assay results published in ChEMBL document CHEMBL1201862, “PubChem BioAssay data set” (2004).
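In this assay, cells in 96-well plates receive the compound at five concentrations for 48 hours. Endpoints are linearly interpolated between the surrounding concentrations. The concentration for 50% growth inhibition is given as GI50.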 Active and inactive are the calls of the source. Cut-off read from the data, not from the text of the source: active = GI50 up to about 1.1 µM and inactive = higher.

Legend:
Assay in all cases: DTP human tumour cell line panel, 48 h
SN12C = system: SN12C
UACC-257 = system: UACC-257
NCI-H226 = system: NCI-H226
NCI/ADR-RES = system: NCI/ADR-RES
SW-620 = system: SW-620
UACC-62 = system: UACC-62
A549 = system: A549
COLO 205 = system: COLO 205
SK-MEL-5 = system: SK-MEL-5
SK-MEL-2 = system: SK-MEL-2
UO-31 = system: UO-31
DU-145 = system: DU-145
BT-549 = system: BT-549
MDA-MB-435 = system: MDA-MB-435
Malme-3M = system: Malme-3M
RPMI-8226 = system: RPMI-8226
OVCAR-8 = system: OVCAR-8
NCI-H23 = system: NCI-H23
HOP-62 = system: HOP-62

Measured: GI50

NC(=O)CCC(CCC(N)=O)(CCC(N)=O)[N+](=O)[O-]
inactive: SN12C > 100 µM | UACC-257 > 100 µM | NCI-H226 25.4 µM | NCI/ADR-RES > 100 µM | SW-620 > 100 µM | UACC-62 > 100 µM | A549 > 100 µM | COLO 205 > 100 µM | SK-MEL-5 > 100 µM | SK-MEL-2 > 100 µM | UO-31 > 100 µM | DU-145 > 100 µM | BT-549 > 100 µM | MDA-MB-435 > 100 µM | Malme-3M > 100 µM | RPMI-8226 > 100 µM | OVCAR-8 > 100 µM | NCI-H23 > 100 µM

Cc1cc(C)c2c(c1)CC1(Cc3c(ccc(C)c3C)C1=O)C2=O (configuration not stated)
inactive: SN12C > 100 µM | UACC-257 > 100 µM | NCI-H226 > 100 µM | NCI/ADR-RES > 100 µM | SW-620 > 100 µM | UACC-62 > 100 µM | A549 > 100 µM | COLO 205 > 10 µM | SK-MEL-5 > 100 µM | SK-MEL-2 > 100 µM | UO-31 > 100 µM | DU-145 > 100 µM | BT-549 > 100 µM | MDA-MB-435 > 100 µM | Malme-3M > 100 µM | RPMI-8226 > 100 µM | OVCAR-8 > 100 µM | NCI-H23 > 100 µM

C[C@]12CC/C(=N\O)C=C1CC[C@@H]1[C@@H]2CC[C@]2(C)C(=N/O)/C(=C/c3ccc([N+](=O)[O-])cc3)C[C@@H]12
inactive: SN12C 4.27 µM | UACC-257 4.66 µM | NCI-H226 12.9 µM | NCI/ADR-RES 5.13 µM | SW-620 5.42 µM | UACC-62 3.52 µM | A549 3.94 µM | HOP-62 18.4 µM | COLO 205 4.9 µM | SK-MEL-5 3.21 µM | SK-MEL-2 3.91 µM | UO-31 2.67 µM | DU-145 5.35 µM | BT-549 3.05 µM | MDA-MB-435 3.6 µM | Malme-3M 15 µM | RPMI-8226 1.87 µM | NCI-H23 6 µM

COc1ccc(C(=O)/C=C/c2cccnc2)cc1OC
inactive: SN12C 6.25 µM | UACC-257 15.6 µM | NCI-H226 12.1 µM | NCI/ADR-RES 14.5 µM | UACC-62 14 µM | A549 14.3 µM | HOP-62 14.9 µM | COLO 205 10.9 µM | SK-MEL-5 14.1 µM | SK-MEL-2 13.2 µM | UO-31 13.5 µM | DU-145 14.6 µM | BT-549 6.18 µM | MDA-MB-435 14.8 µM | Malme-3M 15.2 µM | RPMI-8226 2.6 µM | OVCAR-8 5.81 µM | NCI-H23 10.6 µM
